# Laboratory results published in US20230102860A1, “METHOD FOR C[…] FUNGICIDE-RESISTANT SOYBEAN RUST FUNGI” (SUMITOMO CHEMICAL COMPANY, LIMITED, priority 2020, published 2023).
# Tested on: soybean rust fungus (Phakopsora pachyrhizi) having an amino acid substitution of F129L on mitochondrial cytochrome b protein
# Assay: Comparative Test Example 1: soybean leaf disk test at 50 ppm or 12.5 ppm, lesion area (Table A, Table B)
# Assay type: in vivo
# Description: A soybean leaf (cv; Kurosengoku) was punched out to 1 cm diameter to prepare a leaf disk. Each 1 mL of 1.2% agar medium was dispensed in 24 well microplate. A piece of the leaf disk was placed on each well. To a mixture of 0.5 μL of Sorpol (registered trademark) 1200KX, 4.5 μL of DMSO, and 5 μL of xylene was added 20 μL of a DMSO solution containing 10,000 ppm of the test compound. The resulting mixture was diluted with ion exchange water to prepare a spray solution containing a predetermined concentration of the test compound. The spray solution was sprayed in 10 μL per one leaf disk. After 1 day, an aqueous suspension of spores of soybean rust fungus (Phakopsora pachyrhizi) having an amino acid substitution of F129L on mitochondrial cytochrome b protein (1.0×10^5/mL) was inoculated onto the leaf disks. After the inoculation, the microplate was placed in a growth chamber (light on for 6 hours, light off for 18 hours, 23° C. temperature, 60% humidity). After 1 day, the leaf disks were air-dried to disappear water droplets on the surface of the leaf disk, and the microplate was placed again in the growth chamber for 10 to 14 days. Thereafter, a lesion area of soybean rust disease was assessed. […] Here the untreated means that the spray solution containing the test compound was not sprayed onto the leaf disk.
# The test was conducted by using as a test compound the present compound 3, 5, 11, 59, 200, 202, 207, 214, 222, 294 or 391, or azoxystrobin, dimoxystrobin or metominostrobin, at the predetermined concentration of 50 ppm or 12.5 ppm according to a method described in the Test Example 1. The results thereof are indicated in [Table A] and [Table B].
Compound,Lesion Area at each concentration (%) (12.5 ppm),Lesion Area at each concentration (%) (50 ppm)
CO/C=C(/C(=O)OC)c1ccccc1/C=C/C1CC1C (stereo not shown),0,0
CO/C=C(/C(=O)OC)c1ccccc1/C=C/C1CC1(F)F (stereo not shown),0,0
CCc1ccc(/C(=C\OC)C(=O)OC)c(/C=C/C2CC2)c1,0,0
CO/C=C(/C(=O)OC)c1ccc(Cl)cc1/C=C/C1CC1(C)C (stereo not shown),0,0
CCCCC#Cc1cc(Cl)ccc1/C(=C\OC)C(=O)OC,0,0
CO/C=C(/C(=O)OC)c1ccc(Cl)cc1C#CCC(C)C,0,0
CO/C=C(/C(=O)OC)c1ccc(OC)cc1C#CCC(C)C,0,0
CO/C=C(/C(=O)OC)c1ccc(Cl)cc1C#CCC1CCCC1,0,0
CO/C=C(/C(=O)OC)c1ccccc1COc1ccn(-c2ccc(Cl)cc2)n1,10,0
CNC(=O)/C(=N/OC)c1ccccc1COc1ccn(-c2ccc(Cl)cc2)n1,10,0
CO/C=C(/C(=O)OC)c1c(C)cccc1CO/N=C(\C)c1ccc(Cl)cc1,0,0
CO/C=C(/C(=O)OC)c1ccccc1Oc1cc(Oc2ccccc2C#N)ncn1,100,100
CNC(=O)/C(=N/OC)c1ccccc1COc1cc(C)ccc1C,100,100
CNC(=O)/C(=N/OC)c1ccccc1Oc1ccccc1,100,100
